In patent US20180169045A1, “AMINO ACID COMPOSITIONS AND METHODS FOR THE TREATMENT OF LIVER DISEASES” (AXCELLA HEALTH INC., priority 2016, published 2018):

Experiments:
[1] = tested on: LX-2 hepatic stellate cells; assay: TGFβ1-induced fibrogenic gene expression (Col1a1, Acta2, Timp2) in LX-2 cells, qRT-PCR; assay type: cell-based; design: key to Col1a1 gene expression, Mean: relative expression normalized to β-actin by ΔΔCt method; conditions: for Col1a1 gene expression, Mean: TGFβ1 Yes
FATZO mice = assay: FATZO mouse NASH model (Example 15): liver histology (NAS, fibrosis score, Sirius Red, Oil Red O); assay type: in vivo; conditions: FATZO mice on WDF, 4 weeks
Source text: NASH was induced in 60 male FATZO mice by a western diet (Research Diet # D12079B; fat 40% kcal, protein 17% kcal, carbohydrate 43% kcal) supplemented with 5% fructose in the drinking water (WDF) during a 16 week induction phase. Diets and water were available ad libitum. Littermate control male FATZO mice fed with a control diet (n=6, Purina #5008; fat 17% kcal, protein 27% kcal, carbohydrate 56% kcal) and sterile water were set up for control purpose. Mice were housed in plastic cages with microisolator. Sterilized bedding was replaced once a week. Mice were housed three per cage and maintained on a twelve hour light cycle throughout study duration. Room temperature was monitored daily and maintained at 22-25° C. Body weight was recorded every week during the induction phase. […]
[…], […]+G, LRQNAC, OCA and Vehicle were administered by oral gavage at a volume of 10 mL/kg throughout the study. Dosages were calculated by daily body weight. […]
The livers were evaluated using the NASH liver criteria for scoring. In this mouse study, one cross section of liver for each case was analyzed with the NASH score system. […] The NAS can range from 0 to 8 and is calculated by the sum of scores of steatosis (0-3), lobular inflammation (0-3) and hepatocyte ballooning (0-2) from H&E stained sections. Fibrosis was scored (0-4) from picrosirius red stained slides. […]

STAM™ mice = assay: STAM mouse NASH model (Example 6): activated hepatic stellate cells, α-smooth muscle actin staining; assay type: in vivo; conditions: individual animals
Protocol: Amino Acid Composition A-1 and Obeticholic acid (6α-ethyl-chenodeoxycholic acid; “OCA”) were tested for their ability to treat NASH in the STAM™ model (Stelic Institute & Co., Tokyo, Japan; Saito K. et al., 2015 Sci Rep 5:12466). Two additional groups of normal C57BL/6 mice fed standard chow and vehicle treated STAM™ mice were included as controls. All animals receiving treatment or vehicle were treated starting at 6 weeks until 9 weeks of age. Compounds were administered via oral gavage, with a dose volume of 10 ml/kg. Amino Acid Composition A-1 was administered twice daily at a dose of 1500 mg/kg, and OCA was administered once daily at a dose of 30 mg/kg.
STAM™ is a model for non-alcoholic steatohepatitis (NASH) and hepatocellular carcinoma (HCC), developed by SMC Laboratories, Inc. and created by the combination of chemical and dietary interventions using C57BL/6 mice (Saito K. et al., 2015 Sci Rep 5:12466). Mice are treated with a low dose of streptozotocin at birth and fed a high fat diet starting at 4 weeks. Evidence of fatty liver is present by 5 weeks, followed by NASH by 7 weeks and fibrosis by 9 weeks. […]
Liver sections of all mice were stained for the marker α-smooth muscle actin (αSMA) to identify activated hepatic stellate cells. Images were quantified using the percent of positively stained area was used as a measure of stellate cell activation. […]

[2] = individual amino acid at 1X HMDB concentration
[3] = individual amino acid at 50X HMDB concentration

Row | Compound | Col1a1 gene expression, Mean [1, 2] | Col1a1 gene expression, Mean [1, 3] | Col1a1 expression of individual amino acids, in words ([1]; individual amino acid at 50× HMDB derived concentration) | NAFLD activity score (NAS) compared to vehicle, in words (FATZO mice) | Activated hepatic stellate cells (mean positively stained area, α-smooth muscle actin): raw data (STAM™ mice)
1 | N=C(N)NCCC[C@H](N)C(=O)O [ARG] | 1.620 | 1.970 |  |  | 
2 | N[C@@H](CS)C(=O)O [CYS] | 2.491 | 1.695 |  |  | 
3 | N[C@@H](CS)C(=O)O [Cysteine, L-Cysteine] |  |  | significant decrease |  | 
4 | NC(=O)CC[C@H](N)C(=O)O [GLN] | 2.340 | 2.194 |  |  | 
5 | CC(C)C[C@H](N)C(=O)O [LEU] | 1.901 | 2.372 |  |  | 
6 | CC[C@H]1[C@@H](O)[C@@H]2[C@H](CC[C@]3(C)[C@@H]([C@H](C)CCC(=O)O)CC[C@@H]23)[C@@]2(C)CC[C@@H](O)C[C@@H]12 [OCA, 6α-ethyl-chenodeoxycholic acid] |  |  |  | no significant effect | 1.5
7 | CC(C)[C@H](N)C(=O)O [VAL] | 2.093 | 2.203 |  |  | 
